Assay results: patent publication US20150038527A1, “FUROPYRIDINE DERIVATIVES” (Merck Patent GmbH, priority 2012, published 2015)

biological target: T1, SYK (Homo sapiens, UniProt P43405); experiment: SYK Flash Plate Assay (enzyme assay); type: biochemical
T1 construct: 2.5 nM SYK, 400 nM Biotin-Aha-Aha-KEDPDYEWPSAKK and 10 μM ATP
Method: The kinase assay is performed either as 384-well Flashplate assay (for e.g. Topcount measurement) or as 384-well Image-Flashplate assay (for LEADseeker measurement).
2.5 nM SYK, 400 nM Biotin-Aha-Aha-KEDPDYEWPSAKK and 10 μM ATP (spiked with 0.3 μCi 33P-ATP/well) are incubated in a total volume of 50 μl (60 mM Hepes, 10 mM MgCl2, 1.2 mM Dithiothreitol, 0.02% Brij35, 0.1% BSA, pH 7.5) with or without test compound for 1 hours at 30° C. The reaction is stopped with 25 μl 200 mM EDTA. After 30 Min at 30° C. the liquid is removed and each well washed thrice with 100 μl 0.9% sodium chloride solution. Non-specific reaction is determined in presence of 0.1 μM Staurosporine. Radioactivity is measured with Topcount (when using Flashplates) or with LEADseeker (when using Image-Flashplates) respectively. Results (e.g. IC50-values) are calculated with program tools provided by the IT-department (e.g. Symyx Assay Explorer, Genedata Screener).

IC50 [µM]	Structure (SMILES)
0.1 to 0.3	COc1ccc(C(N)=O)cc1-c1cc2nccc(-c3cc([C@@H](C)N)ccc3OC)c2o1 [Compound A1, 3-{7-[5-((R)-1-Amino-ethyl)-2-methoxy-phenyl]-furo[3,2-b]pyridin-2-yl}-4-methoxy-benzamide]
3 to 50	COc1cc(-c2cc3nccc(NCC4CCCNC4)c3o2)cc(OC)c1OC (stereo not drawn) [Compound A2, Piperidin-3-ylmethyl-[2-(3,4,5-trimethoxy-phenyl)-furo[3,2-b]pyridin-7-yl]-amine]
0.3 to 3	COc1cc(-c2cc3nccc(-c4ccc5c(c4)ncn5CCN)c3o2)cc(OC)c1OC [Compound A3, 2-{5-[2-(3,4,5-Trimethoxy-phenyl)-furo[3,2-b]pyridin-7-yl]-benzoimidazol-1-yl}-ethylamine]
0.3 to 3	COc1ccc(CNCCN)cc1-c1ccnc2cc(-c3cc(OC)c(OC)c(OC)c3)oc12 [Compound A4, N1-{4-methoxy-3-[2-(3,4,5-trimethoxy-phenyl)-furo[3,2-b]pyridin-7-yl]-benzyl}-ethane-1,2-diamine]
0.3 to 3	COC[C@H](N)CNC(=O)c1cccc(-c2ccnc3cc(-c4cc(OC)c(OC)c(OC)c4)oc23)c1 [Compound A5, N—((R)-2-amino-3-methoxy-propyl)-3-[2-(3,4,5-trimethoxy-phenyl)-furo[3,2-b]pyridin-7-yl]-benzamide]
3 to 50	COc1cc(-c2cc3nccc(-c4ccc5[nH]c(=O)n(CCN)c5c4)c3o2)cc(OC)c1OC [Compound A6, 1-(2-amino-ethyl)-6-[2-(3,4,5-trimethoxy-phenyl)-furo[3,2-b]pyridin-7-yl]-1,3-dihydro-benzoimidazol-2-one]
0.3 to 3	COc1cc(-c2cc3nccc(-c4ccnc(NC[C@@H]5CCCNC5)c4)c3o2)cc(OC)c1OC [Compound A7, (R)-1-piperidin-3-ylmethyl-{4-[2-(3,4,5-trimethoxy-phenyl)-furo[3,2-b]pyridin-7-yl]-pyridin-2-yl}-amine]
0.3 to 3	COc1cc(-c2cc3nccc(-c4ccc5ncn(CCN)c5c4)c3o2)cc(OC)c1OC [Compound A8, 2-{6-[2-(3,4,5-trimethoxy-phenyl)-furo[3,2-b]pyridin-7-yl]-benzoimidazol-1-yl}-ethylamine]
< 0.1	COc1ccc(C(N)=O)cc1-c1cc2nccc(-c3ccc4[nH]cnc4c3)c2o1 [Compound A9, 3-[7-(1H-benzoimidazol-5-yl)-furo[3,2-b]pyridin-2-yl]-4-methoxy-benzamide]
0.3 to 3	COC[C@@H](CNC(=O)c1cccc(-c2ccnc3cc(-c4cc(OC)c(OC)c(OC)c4)oc23)c1)NS(C)(=O)=O [Compound A10, N—((R)-2-methanesulfonylamino-3-methoxy-propyl)-3-[2-(3,4,5-trimethoxyphenyl)-furo[3,2-b]pyridin-7-yl]-benzamide]
0.3 to 3	COc1cc(-c2cc3nccc(-c4cccc(C(=O)N[C@H]5CCCC[C@H]5O)c4)c3o2)cc(OC)c1OC [Compound A11, N-((1S,2R)-2-hydroxy-cyclohexyl)-3-[2-(3,4,5-trimethoxy-phenyl)-furo[3,2-b]pyridin-7-yl]-benzamide]
0.3 to 3	COc1cc(-c2cc3nccc(-c4cccc(C(=O)N[C@@H]5CCC[C@H]5O)c4)c3o2)cc(OC)c1OC [Compound A12, N-((1R,2R)-2-hydroxy-cyclopentyl)-3-[2-(3,4,5-trimethoxy-phenyl)-furo[3,2-b]pyridin-7-yl]-benzamide]
0.3 to 3	COc1cc(-c2cc3nccc(-c4cc5cn[nH]c5cc4C)c3o2)cc(OC)c1OC [Compound A13, 7-(6-methyl-1H-indazol-5-yl)-2-(3,4,5-trimethoxy-phenyl)-furo[3,2-b]pyridine]
0.3 to 3	COc1cc(O)ccc1-c1cc2nccc(-c3ccc4[nH]cnc4c3)c2o1 [Compound A14, 4-[7-(1H-benzoimidazol-5-yl)-furo[3,2-b]pyridin-2-yl]-3-methoxy-phenol]
0.3 to 3	COc1cc(O)ccc1-c1cc2nccc(-c3cccc(C(=O)N[C@@H]4CCCC[C@@H]4N)c3)c2o1 [Compound A15, N-((1R,2S)-2-amino-cyclohexyl)-3-[2-(4-hydroxy-2-methoxy-phenyl)furo[3,2-b]pyridin-7-yl]-benzamide]
3 to 50	COCC(O)CNC(=O)c1cccc(-c2ccnc3cc(-c4cc(OC)c(OC)c(OC)c4)oc23)c1 (stereo not drawn) [Compound A16, N-(2-hydroxy-3-methoxy-propyl)-3-[2-(3,4,5-trimethoxy-phenyl)-furo[3,2-b]pyridin-7-yl]-benzamide]
3 to 50	COc1cc(-c2cc3nccc(-c4cccc(C(=O)NC[C@@H](O)CO)c4)c3o2)cc(OC)c1OC [Compound A17, N—((R)-2,3-dihydroxy-propyl)-3-[2-(3,4,5-trimethoxy-phenyl)-furo[3,2-b]pyridin-7-yl]-benzamide]

IC50 [µM]	Structure (SMILES)
0.3 to 3	COc1cc(OCCN)ccc1-c1cc2nccc(-c3ccc4[nH]cnc4c3)c2o1 [Compound A18, 2-{4-[7-(1H-benzoimidazol-5-yl)-furo[3,2-b]pyridin-2-yl]-3-methoxy-phenoxy}-ethylamine]
3 to 50	COc1cc(-c2cc3nccc(-c4cccc(C(=O)N[C@@H]5CCCC[C@H]5O)c4)c3o2)cc(OC)c1OC [Compound A19, N-((1R,2R)-2-hydroxy-cyclohexyl)-3-[2-(3,4,5-trimethoxy-phenyl)-furo[3,2-b]pyridin-7-yl]-benzamide]
3 to 50	COc1cc(-c2cc3nccc(-c4cccc(C(=O)NCC(O)CO)c4)c3o2)cc(OC)c1OC (stereo not drawn) [Compound A20, N-(2,3-dihydroxy-propyl)-3-[2-(3,4,5-trimethoxy-phenyl)-furo[3,2-b]pyridin-7-yl]-benzamide]
0.1 to 0.3	COc1ccc(C(C)O)cc1-c1ccnc2cc(-c3cc(OC)c(OC)c(OC)c3)oc12 (stereo not drawn) [Compound A21, 1-{4-methoxy-3-[2-(3,4,5-trimethoxy-phenyl)-furo[3,2-b]pyridin-7-yl]-phenyl}-ethanol]
3 to 50	COc1cc(-c2cc3nccc(-c4cccc(C(=O)N[C@@H]5CCC[C@@H]5O)c4)c3o2)cc(OC)c1OC [Compound A22, N-((1R,2S)-2-hydroxy-cyclopentyl)-3-[2-(3,4,5-trimethoxy-phenyl)-furo[3,2-b]pyridin-7-yl]-benzamide]
0.3 to 3	COc1cc(-c2cc3nccc(-c4cccc(C(=O)NCC(N)C5CC5)c4)c3o2)cc(OC)c1OC (stereo not drawn) [Compound A23, N-(2-amino-2-cyclopropyl-ethyl)-3-[2-(3,4,5-trimethoxy-phenyl)-furo[3,2-b]pyridin-7-yl]-benzamide]
0.3 to 3	COc1cc(-c2cc3nccc(-c4cccc(C(=O)N[C@H]5C[C@H](N)C5)c4)c3o2)cc(OC)c1OC [Compound A24, N-(3-amino-cyclobutyl)-3-[2-(3,4,5-trimethoxy-phenyl)-furo[3,2-b]pyridin-7-yl]-benzamide]
0.3 to 3	COc1ccc(Cl)c(-c2cc3nccc(-c4cccc(C(=O)N[C@@H]5CCCC[C@@H]5N)c4)c3o2)c1 [Compound A25, N-((1R,2S)-2-amino-cyclohexyl)-3-[2-(2-chloro-5-methoxy-phenyl)-furo[3,2-b]pyridin-7-yl]-benzamide]
3 to 50	COC[C@@H](N)CNC(=O)c1cccc(-c2ccnc3cc(-c4cc(OC)c(OC)c(OC)c4)oc23)c1 [Compound A26, N—((S)-2-amino-3-methoxy-propyl)-3-[2-(3,4,5-trimethoxy-phenyl)-furo[3,2-b]pyridin-7-yl]-benzamide]
0.3 to 3	COc1cc(-c2cc3nccc(-c4cccc(C(=O)N[C@H]5C[C@@H](N)C5)c4)c3o2)cc(OC)c1OC [Compound A27, N-(3-amino-cyclobutyl)-3-[2-(3,4,5-trimethoxy-phenyl)-furo[3,2-b]pyridin-7-yl]-benzamide]
3 to 50	COc1cc(-c2cc3nccc(-c4cccc(C(=O)NC[C@H](O)[C@@H](O)[C@H](O)[C@H](O)CO)c4)c3o2)cc(OC)c1OC [Compound A28, N-((2S,3R,4R,5R)-2,3,4,5,6-pentahydroxy-hexyl)-3-[2-(3,4,5-trimethoxyphenyl)-furo[3,2-b]pyridin-7-yl]-benzamide]
3 to 50	COc1cc(OCCN)ccc1-c1cc2nccc(-c3cccc(C(=O)NCCO)c3)c2o1 [Compound A29, 3-{2-[4-(2-amino-ethoxy)-2-methoxy-phenyl]-furo[3,2-b]pyridin-7-yl}-N-(2-hydroxy-ethyl)-benzamide]
3 to 50	CCc1ccc(OC)c(-c2cc3nccc(-c4cc(CC)ccc4OC)c3o2)c1 [Compound A30, 2,7-bis-(5-ethyl-2-methoxy-phenyl)-furo[3,2-b]pyridine]
0.3 to 3	COc1ccc(C(N)=O)cc1-c1cc2nccc(-c3cc(C(N)=O)ccc3OC)c2o1 [Compound A31, 3-[2-(5-carbamoyl-2-methoxy-phenyl)furo[3,2-b]pyridin-7-yl]-4-methoxybenzamide]
3 to 50	COc1cc(-c2cc3nccc(-c4cccc(C(=O)NCC(C)(C)N)c4)c3o2)cc(OC)c1OC [Compound A32, N-(2-amino-2-methyl-propyl)-3-[2-(3,4,5-trimethoxy-phenyl)-furo[3,2-b]pyridin-7-yl]-benzamide]
3 to 50	COc1cc(-c2cc3nccc(-c4cccc(C(=O)N[C@@H]5CCCC[C@@H]5NS(C)(=O)=O)c4)c3o2)cc(OC)c1OC [Compound A33, N-((1R,2S)-2-methanesulfonylamino-cyclohexyl)-3-[2-(3,4,5-trimethoxyphenyl)-furo[3,2-b]pyridin-7-yl]-benzamide]
